Here are results for 16 compounds from patent publication US7759337B2, “Phthalazine compounds and methods of use” (Amgen Inc., priority 2005, dated 2010).

This experiment concerns production of TNF by monocytes activated with bacterial lipopolysaccharide (LPS). The experiment can be described thus: Lipopolysaccharide-activated monocyte TNF production assay. In kind it is cell-based. The settings on record: Homo sapiens; whole blood monocyte assay (LPS induced TNF release). The procedure: Test compounds were evaluated in vitro for the ability to inhibit the production of TNF by monocytes activated with bacterial lipopolysaccharide (LPS). Fresh residual source leukocytes (a byproduct of plateletpheresis) were obtained from a local blood bank, and peripheral blood mononuclear cells (PBMCs) were isolated by density gradient centrifugation on Ficol-Paque Plus (Pharmacia). PBMCs were suspended at 2×10^6/mL in DMEM supplemented to contain 2% FCS, 10 mM, 0.3 mg/mL […], 100 U/mL penicillin G and […] streptomycin sulfate (complete media). Cells were plated into Falcon flat bottom, 96 well culture plates (200 μL/well) and cultured overnight at 37° C. and 6% CO2. Non-adherent cells were removed by washing with 200 μl/well of fresh medium.
Test compounds were dissolved in […]. Compound stock solutions were prepared to an initial concentration of […]. Stocks were diluted initially to 20-200 μM in complete media. Nine two-fold serial dilutions of each compound were then prepared in complete medium.
One hundred microliters of each test compound dilution were added to microtiter wells containing adherent monocytes and 100 μL complete medium. Monocytes were cultured with test compounds for 60 min at which time 25 μL of complete medium containing 30 ng/mL lipopolysaccharide from E. coli K532 were added to each well. Cells were cultured an additional 4 hrs. Culture supernatants were then removed and TNF presence in the supernatants was quantified using an ELISA.
Flat bottom, 96 well Corning High Binding ELISA plates were coated overnight (4° C.) with 150 μL/well of 3 μg/mL murine anti-human TNF-α MAb (R&D Systems #MAB210). Wells were then blocked for 1 h at room temperature with 200 μL/well of CaCl2-free ELISA buffer supplemented to contain 20 mg/mL BSA (standard ELISA buffer: […], 150 mM NaCl, 2 mM CaCl2, 0.15 mM thimerosal, pH 7.4). Plates were washed and replenished with 100 μL of test supernatants (diluted 1:3) or standards. Standards consisted of eleven 1.5-fold serial dilutions from a stock of I ng/mL recombinant human TNF (R&D Systems). Plates were incubated at room temperature for 1 h on orbital shaker (300 rpm), washed and replenished with 100 μL/well of 0.5 μg/mL goat anti-human TNF-α (R&D systems #AB-210-NA) biotinylated at a 4:1 ratio. Plates were incubated for 40 min, washed and replenished with 100 μL/well of alkaline phosphatase-conjugated streptavidin (Jackson ImmunoResearch #016-050-084) at 0.02 μg/mL. Plates were incubated 30 min, washed and replenished with 200 μL/well of 1 mg/mL of p-nitrophenyl phosphate. After 30 min, plates were read at 405 nm on a Vmax plate reader.
Standard curve data were fit to a second order polynomial and unknown TNF-α concentrations determined from their OD by solving this equation for concentration. TNF concentrations were then plotted vs. test compound concentration using a second order polynomial. This equation was then used to calculate the concentration of test compounds causing a 50% reduction in TNF production.

Molecules are shown by their SMILES.

As to `Cc1ccc(C(=O)NC2CC2)cc1-c1ccc2c(N3CCNC[C@@H]3C)nncc2c1` [Example 63, N-cyclopropyl-4-methyl-3-(1-((S)-2-methylpiperazin-1-yl)phthalazin-6-yl)benzamide], the 50% inhibitory concentration (IC50) is at most 5 µM.

In turn, `CCc1ccccc1-c1nncc2cc(-c3cc(C(=O)NC4CC4)ccc3C)ccc12` [Example 251, N-cyclopropyl-3-[1-(2-ethylphenyl)phthalazin-6-yl]-4-methylbenzamide] yielded an IC50 of at most 5 µM.

`Cc1ccc(S(=O)(=O)NC2CC2)cc1-c1ccc2c(NC(C)C)nncc2c1` [Example 359, N-cyclopropyl-3-[1-(isopropylamino)phthalazin-6-yl]-4-methylbenzenesulfonamide] had an IC50 of at most 5 µM.

The compound `Cc1ccc(C(=O)NC2CC2)cc1-c1ccc2c(N(C)C3CCCCC3)nncc2c1` [Example 289, 3-{1-[cyclohexyl(methyl)amino]phthalazin-6-yl}-N-cyclopropyl-4-methylbenzamide] showed an IC50 of at most 5 µM.

The compound `Cc1ccc(C(=O)NC2CC2)cc1-c1ccc2c(O)nncc2c1` [Example 288, N-cyclopropyl-3-(1-hydroxyphthalazin-6-yl)-4-methylbenzamide] showed an IC50 of at most 5 µM.

`Cc1ccc(C(=O)NC2CC2)cc1-c1ccc2c(C3CCN(C)CC3)nncc2c1` [Example 150, N-cyclopropyl-4-methyl-3-[1-(1-methylpiperidin-4-yl)phthalazin-6-yl]benzamide]: the IC50 was at most 5 µM.

Regarding `COc1ncc(-c2nncc3cc(-c4cc(C(=O)NC5CC5)ccc4C)ccc23)cn1` [Example 264, N-cyclopropyl-3-[1-(2-methoxypyrimidin-5-yl)phthalazin-6-yl]-4-methylbenzamide], the IC50 was at most 5 µM.

`Cc1ccc(C(=O)NC2CCC2)cc1-c1ccc2c(N3CCN4C(=O)OC[C@@H]4C3)nncc2c1` [Example 269, 3-{1-[(8aS)-3-oxotetrahydro[1,3]oxazolo[3,4-a]pyrazin-7(1H)-yl]phthalazin-6-yl}-N-cyclobutyl-4-methylbenzamide] gave an IC50 of at most 5 µM.

In turn, `O=C(NC1CC1)c1ccc(F)c(-c2ccc3c(N4CCOCC4)nncc3c2)c1` [Example 72, N-Cyclopropyl-4-fluoro-3-(1-morpholin-4-ylphthalazin-6-yl)benzamide] had an IC50 of at most 5 µM.

`CNc1noc2c(-c3ccc4c(OC(C)C)nncc4c3)c(C)ccc12` [Example 331, N,6-dimethyl-7-(1-((1-methylethyl)oxy)-6-phthalazinyl)-1,2-benzisoxazol-3-amine] had an IC50 of at most 5 µM.

In the case of `Cc1ccc(C(=O)NC2CC2)cc1-c1ccc2c(N3CCS(=O)(=O)CC3)nncc2c1` [Example 133, N-cyclopropyl-3-[1-(1,1-dioxidothiomorpholin-4-yl)phthalazin-6-yl]-4-methylbenzamide], the IC50 is at most 5 µM.

Consider `COc1ncccc1-c1nncc2cc(-c3cc(C(=O)NC4CC4)ccc3C)ccc12` [Example 230, N-cyclopropyl-3-[1-(2-methoxypyridin-3-yl)phthalazin-6-yl]-4-methylbenzamide], for which the IC50 is at most 5 µM.

Take `Cc1ccc(C(=O)NC2CC2)cc1-c1ccc2c(NC[C@@H]3CCCO3)nncc2c1` [Example 309, N-cyclopropyl-4-methyl-3-(1-{[(2S)-tetrahydrofuran-2-ylmethyl]amino}phthalazin-6-yl)benzamide]: the IC50 is at most 5 µM.

In turn, `CSc1ccc(-c2nncc3cc(-c4cc(C(N)=O)ccc4C)ccc23)c(C)c1` [Example 260, 4-methyl-3-{1-[2-methyl-4-(methylsulfanyl)phenyl]phthalazin-6-yl}benzamide] had an IC50 of at most 5 µM.

The compound `Cc1ccc(C(=O)NC2CC2)cc1-c1ccc2c(N3CCOC[C@H]3C)nncc2c1` [Example 75, N-Cyclopropyl-4-methyl-3-{1-[(3R)-3-methylmorpholin-4-yl]phthalazin-6-yl}benzamide] showed an IC50 of at most 5 µM.

Turning to `Cc1ccc(C(=O)NC2CC2)cc1-c1ccc2c(C3=CCNCC3)nncc2c1` [Example 62, N-cyclopropyl-4-methyl-3-(1-(1,2,3,6-tetrahydropyridin-4-yl)phthalazin-6-yl)benzamide], the IC50 was at most 5 µM.
